Measured values as given in article PMC13194685 (Cell Death & Disease, 2026).

Tests used:
[1] = system: retinal ganglion cells (RGCs); test: Ex vivo optic nerve cut (evONC) model: RGC viability, apoptosis, retinal cytoarchitecture; format: in vivo, C57BL/6J mice; settings: evONC T24, JGRi1 50, 250, 500 μM, sJGRi1 500 μM, n = 4
Protocol: (§1) Animals were then euthanized via beheading.
(§2) Western blots were quantified by densitometry using ImageJ software.
The enucleated eyes were fixed in 4% paraformaldehyde solution overnight at 4 °C. Then, they were incubated in a 30% sucrose-in-PBS solution overnight, and finally, they were embedded in an optimal cutting temperature (OCT, Sigma, St. Louis, MO, USA) compound. Eyes were cut at a thickness of 20 μm. For reliability, the sections containing the optic nerve were utilized, and in each eye, at least five discontinuous sections were analyzed. For histological examination, cryosections were stained in Mayer’s Hematoxylin Solution (Merck, Germany), rinsed in tap water, then counterstained using Eosin Y alcoholic solution (Merck, Germany). Sections were mounted on coverslips with Eukitt (Merck, Germany), and observed under a light-transmission microscope (Nikon) with 40X magnification.
(§3) Fluorescence intensity was quantified by using ImageJ software.

[2] = system: A2 amacrine cells and rod bipolar cells (PROX1-positive); test: evONC model: PROX1-positive cells in the INL; format: in vivo, C57BL/6J mice; settings: evONC T24; JGRi1 50, 250, 500 μM, sJGRi1 500 μM; one drop daily for 6 days; n = 3
Excerpt: as §1, §3

[3] = system: JNK2; test: evONC model: JNK2 expression (immunofluorescence, immunoblot); format: in vivo, C57BL/6J mice; settings: evONC T24; 500 μM eye drops (JGRi1 or sJGRi1), one drop daily for 6 days; n = 5
Excerpt: as §1, §2, §3

[4] = target: T1, JNK2-STX1A interaction (Mus musculus, UniProt Q9WTU6); test: evONC model: JNK2-STX1A co-localization (Pearson's analysis); format: in vivo, C57BL/6J mice; settings: evONC T24; JGRi1 50, 250, 500 μM, sJGRi1 500 μM; one drop daily for 6 days; n = 5
T1 construct: from tissue; host or cells: retinal cryosections of C57BL/6J mice
Protocol: as §1, §3
(§4) Co-localization between fluorescent signals in acquired images was expressed using Pearson’s score, which describes the correlation of the intensity distribution between two distinct fluorescent signals. The analysis was carried out using the “JACOP” plug-in available for the ImageJ software. At least 10 different fields per condition were utilized for the quantification.

[5] = system: SNARE complex; test: evONC model: SNARE complex assay (native PAGE); format: in vivo, C57BL/6J mice; settings: evONC T24; JGRi1 50, 250, 500 μM, sJGRi1 500 μM; one drop daily for 6 days; n = 6
Protocol: as §1
The modulation SNARE complex assembly by JGRi1 was evaluated via native PAGE. Briefly, samples were loaded using a non-denaturizing loading buffer (0.5 M Tris-HCl, pH 6.8, 15% v/v glycerol, and 1% v/v bromophenol blue). Samples were then left non-boiled to preserve protein-protein interaction, separated onto polyacrylamide gels, and then blotted onto nitrocellulose membranes. The immunoreactive bands were identified by using an antibody against STX1A, which is a core component of SNARE complexes. Bands starting from approximately 66 kDa were quantified as an indicator of the SNARE complex assembly upon treatment. β-tubulin was used as the loading control for quantification.

[6] = system: retinal ganglion cells (RGCs); test: NMDA injection model: RGC viability, apoptosis, cytoarchitecture, CTB-488 transport; format: in vivo, C57BL/6J mice
[7] = system: L-glutamate; test: NMDA injection model: retinal and synaptic glutamate immunoreactivity; format: in vivo, C57BL/6J mice; settings: intravitreal NMDA; eye drops 250 μM daily from one day prior to NMDA through follow-up; n = 3
Protocol: as §3, §4

[8] = system: JNK2; test: NMDA injection model: JNK2 immunofluorescence; format: in vivo, C57BL/6J mice; settings: intravitreal NMDA; eye drops 250 μM daily; n = 4
Excerpt: as §3

[9] = system: microglia (IBA1); test: NMDA injection model: microglial infiltration (IBA1 immunofluorescence); format: in vivo, C57BL/6J mice; settings: intravitreal NMDA; eye drops 250 μM daily; n = 5
Excerpt: as §3

[10] = system: STX1A; settings: evONC T24; JGRi1 50, 250, 500 μM, sJGRi1 500 μM; one drop daily for 6 days; n = 5
Protocol: Mice were either left untreated or treated for 6 days with a single drop per day of JGRi1 dissolved into a balanced saline solution (BSS) buffer at different concentrations (50 μM, 250 μM, 500 μM). A total volume of 5 μL of JGRi1 solution was applied directly onto the cornea. Treated animals were kept immobilized and under observation for 1 minute to ensure proper peptide penetration within the eye. Animals were then euthanized via beheading. A scrambled version of the peptide (sJGRi1) at a concentration of 500 μM was included as a control. Subsequently, the optic nerve was cut, and the eyes were harvested according to our previously established protocol [25, 26]. The extracted eyes were kept in phosphate-buffered salt (PBS; Capricorn Scientifics, Germany) at 4 °C for 24 hours, then the retinas were dissected and processed accordingly.
Retinal cryosections were permeabilized using 0.5% Tryton-X (Merck, Germany) in PBS (Capricorn Scientifics, Germany) solution for 5 minutes. Then, blocked (0.1 M glycine, 2% w/v bovine serum albumin, 2% v/v fetal calf serum, 0.1% v/v Tryton-X) for 1 hour to avoid non-specific protein interactions. The primary antibody was diluted in the same blocking solution and held overnight at 4 °C. […] Fluorescence intensity was quantified by using ImageJ software.

## RISEQLSNIEEGQE [sJGRi1]
[1]; one drop daily for 6 days before evONC
  RBPMS-positive cells in the GCL (immunofluorescence), RGC viability: failed to rescue RGC viability upon evONC
[1]; one drop daily for 6 days
  RBPMS expression (immunoblot, densitometry vs β-TUB): did not produce any protective effect on RGC viability in comparison to the active peptide
[2]
  number of PROX1-positive cells in the INL: did not produce any protective effect on PROX1-positive cell number
[3]
  JNK2 immunoreactivity (immunofluorescence): does not have any effect on JNK2 nor STX1A expression at T24
[4]
  JNK2-STX1A co-localization (co-immunofluorescence, Pearson's analysis): produced an even more marked co-localization between JNK2 and STX1A
[5]
  SNARE complex formation (STX1A signal from about 66 kDa, non-boiled samples, vs β-TUB): did not produce any effect on SNARE complex formation
[6]; intravitreal NMDA 250 μM, 2 μL, eye drops 250 μM, 4 µL daily, from 24 hours prior to NMDA through the 4-week study period, n = 4
  RBPMS-positive cells (immunofluorescence), RGC viability: had no effect on either RGC viability or apoptosis
[6]; intravitreal NMDA, eye drops 250 μM daily from one day prior to NMDA through follow-up, n = 3
  retinal cytoarchitecture (hematoxylin/Eosin staining): failed to do so
[6]; intravitreal NMDA, eye drops 250 μM daily from one day prior to NMDA through follow-up, n = 4
  c-CASP3 immunoreactivity / c-CASP3-positive cells, apoptosis: had no effect on either RGC viability or apoptosis
[6]; intravitreal NMDA, eye drops 250 μM daily, CTB-488 1 µL intravitreal before sacrifice, n = 5
  uptake and transport of the neural tracer CTB-488 in RGCs (mean fluorescence intensity): diminished CTB uptake and transport in RGCs
[7]
  L-glutamate immunofluorescence in retinal tissue: had no effect
[8]
  JNK2 immunoreactivity (immunofluorescence): did not prevent the NMDA-induced increase in JNK2 expression in the inner retina
[9]
  IBA1 immunoreactivity (microglial infiltration): no reduction was seen upon treatment with sJGRi1
[10]
  STX1A level (immunofluorescence): does not have any effect on JNK2 nor STX1A expression at T24
